Measurements as given in patent US5760036A, “Aminediol protease inhibitors” (E. R. Squibb & Sons, Inc., priority 1995, dated 1998).
Counter-ions that a name gives are not always drawn. Like-named read-outs stand apart in the source and are kept apart here.

Columns and labels:
HIV protease = target: T1, HIV protease (Human immunodeficiency virus type 1 group M subtype B, UniProt P04585); test: HIV Protease Assay; assay type: biochemical
T1 construct: and purified protease
Outline: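 At a single final concentration of 10 μM (4% DMSO), inhibitors were added to a 30-minute, 37° C reaction of purified enzyme with 450 μM H2N-Val-Ser-Gln-Asn-(β-naphthyl-alanine)-Pro-Val-Ile-OH at pH 5.5 (sodium acetate, BSA). Hydrolysis was quantified by reverse-phase HPLC with 220 nm detection after acid quench.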

[1] = tested on: RF strain of HIV (CEM-SS cells); test: Cell Culture Anti-HIV Activity (cell viability, formazan); assay type: cell-based; settings: Human immunodeficiency virus 1, CEM-SS, 144 h, CEM-SS cells, RF strain of HIV, multiplicity of infection 0.04, 6 days at 37° C., 450 nm; read-out: HIV (CEM Cells) IC50
Outline: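 Half-log compound dilutions added to CEM-SS cells (5000/well) carrying HIV RF (MOI 0.04), 6 days, 37° C. Cell protection measured as formazan from tetrazolium, A450. IC50: drug level restoring infected-cell formazan to 50% of the uninfected untreated control.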

[2] = pH 5.5, 10 μM inhibitor, 4% DMSO, 450 μM substrate, pH 5.5, 30 minutes at 37° C., RP-HPLC, read-out: HIV Protease % Inhibition at 10 μM
[3] = pH 5.5, read-out: HIV Protease % Inhibition at 10 μM

inhibition at 10 µM (HIV protease; [2]) [%]	inhibition at 10 µM (HIV protease; [3]) [%]	HIV Protease % Inhibition at 10 μM (HIV protease; 10 μM inhibitor, 4% DMSO, 450 μM substrate, pH 5.5, 30 minutes at 37° C., RP-HPLC) [%]	Structure (SMILES)	IC50 [1] [nM]
99			CC(C)(C)OC(=O)N[C@@H](Cc1ccccc1)[C@H](O)CNC[C@@H](O)[C@H](Cc1ccccc1)NC(=O)[C@@H](NC(=O)OCc1cc2ccncc2o1)C(C)(C)C [Compound 339, [S-[1R*,2S*(2S*,3R*)]]-[2,2-Dimethyl-1-[[[3-[[3-[[(1,1-dimethylethoxy)carbonyl]amino]-2-hydroxy-4-phenylbutyl]amino]-2-hydroxy-1-(phenylmethyl)-propyl]amino]carbonyl]propyl]carbamic acid, (2-furo[2,3-c]pyridinyl) methyl ester]	12
	99		CC(C)(C)OC(=O)N[C@@H](Cc1ccccc1)[C@H](O)CNC[C@@H](O)[C@H](Cc1ccc(OCCn2ccnc2)cc1)NC(=O)OC(C)(C)C [Compound 290, [1S-[1R*,2S*(2S*,3R*)]]-[3-[[3-[[(1,1-Dimethylethoxy)carbonyl]amino]-2-hydroxy-4-[4-[2-(1H-imidazol-1-yl)-ethoxy]phenyl]butyl]amino]-2-hydroxy-1-(phenylmethyl)-propyl]carbamic acid, 1,1-dimethylethyl ester]	60
0			CC(C)(C)OC(=O)N1Cc2ccccc2CC1C(O)CNCC(O)C1Cc2ccccc2CN1C(=O)OC(C)(C)C (stereo not drawn) [Compound 11, [R-(R*,R*)]-3,3'[Iminobis(1-hydroxy-2,1-ethanediyl)]-bis[2(1H)-isoquinolinecarboxylic acid], bis(1,1-dimethylethyl) ester]	> 6000
88			CC(C)(C)OC(=O)N[C@@H](Cc1ccccc1)[C@H](O)CNC[C@@H](O)[C@H](Cc1ccccc1)NC(=O)OC1CCc2ccccc21 (stereo partly drawn) [Compound 144, [1S-(1R*,2S*)]-[Iminobis[2-hydroxy-1-(phenylmethyl)-3,1-propanediyl)]-bis[carbamic acid], 1,1-dimethylethyl-2,3-dihydro-1H-inden-1-yl ester]	1000
99			CC(C)[C@H](NC(=O)[C@H](O)Cc1ccccc1)C(=O)N[C@@H](Cc1ccccc1)[C@H](O)CNC[C@@H](O)[C@H](Cc1ccccc1)NC(=O)OC(C)(C)C [Compound 78, [S-[1R*,2S*[2S*,3R*,N1S*]-N-[3-[[3-[[(1,1-Dimethylethoxy)carbonyl]amino]-2-hydroxy-4-phenylbutyl]amino]-2-hydroxy-1-(phenylmethyl)[propyl]-N^2-(2-hydroxy-1-oxo-3-phenyl-propyl)-L-valinamide]	160
99			CC(C)(C)OC(=O)N[C@@H](Cc1ccccc1)[C@H](O)CNC[C@@H](O)[C@H](Cc1ccccc1)NC(=O)[C@H](CC(N)=O)NC(=O)OCc1ccccc1 [Compound 53, [1S-[1R*,2S*(2S*3R*)]]-N-[3-[[3[[(1,1-Dimethylethoxy)-carbonyl]amino]-2-hydroxy-4-phenylbutyl]amino]-2-hydroxy-1-(phenylmethyl)propyl]-N^2 [(phenylmethoxy)-carbonyl]-L-aspartamide]	540
99			CCC(=O)N[C@H](C(=O)N[C@@H](Cc1ccccc1)[C@H](O)CNC[C@@H](O)[C@H](Cc1ccccc1)NC(=O)OC(C)(C)C)C(C)C (relative stereo) [Compound 248, [1R*,2S*,(2S*,3R*)]-N-[3-[[3-[[(1,1-Dimethylethoxy)carbonyl]amino]-2-hydroxy-4-phenylbutyl]amino]-2-hydroxy-1-(phenylmethyl)propyl]-N^2-(1-oxopropyl)-L-valinamide]	230
		98	CC(C)(C)OC(=O)N[C@@H](Cc1ccccc1)[C@H](O)CNC[C@@H](O)[C@H](Cc1ccccc1)NC(=O)C1(O)COCC1(C)C (single isomer, unassigned; isomer a) [Compound 364, [1S-[1R*,2S*(2S*,3R*)]]-[2-Hydroxy-3-[[tetrahydro-3-hydroxy-4,4-dimethyl-3-furanyl)carbonyl]amino]-4-phenylbutyl]amino]-1-(phenylmethyl)-propyl]carbamic acid, 1,1-dimethylethyl ester, Isomer A]	220
99			CC(C)(C)OC(=O)N[C@@H](Cc1ccccc1)[C@H](O)CNC[C@@H](O)[C@H](Cc1ccccc1)NC(=O)C(NC(=O)OCc1ccccc1)C(C)(C)O (single isomer, unassigned; isomer b) [Compound 302, [1S-[1R*,2S*(2S*,3R*)]]-[1-[[[3-[[(1,1-Dimethylethoxy)carbonyl]amino]-2-hydroxy-4-phenylbutyl]amino]-2-hydroxy-1-(phenylmethyl)propyl]amino]carbonyl]-2-hydroxy-2-methylpropyl]carbamic acid, phenylmethyl ester, isomer B]	250
100			CC(C)(C)OC(=O)N[C@@H](Cc1ccccc1)[C@H](O)CNC[C@@H](O)[C@H](Cc1ccccc1)NC(=O)[C@@H](NC(=O)[C@H](Cc1ccccc1)NC=O)C(C)(C)C (relative stereo) [Compound 285, [1R*,2S*(2S*,3R*)]-N-[3-[[(1,1-Dimethylethoxy)carbonyl]amino]-2-hydroxy-4-phenylbutyl]amino]-2-hydroxy-1-(phenylmethyl)propyl]-N^2-(N-formyl-L-phenylalanyl)-3-methyl-L-valinamide]	650
99			CC(C)(C)OC(=O)N[C@@H](Cc1ccccc1)[C@H](O)CNC[C@@H](O)[C@H](Cc1ccccc1)NC(=O)C(C)(O)C(F)(F)F (single isomer, unassigned; isomer a) [Compound 293, [1S-[1R*,2S*(2S*,3R*)]]-[2-Hydroxy-3-[2-hydroxy-1-oxo-2-(trifluoromethyl)-propyl]amino]-4-phenylbutyl]amino]-1-(phenylmethyl)propyl]carbamic acid, 1,1-dimethylethylester (isomer A)]	30
91			CC(OC(=O)N[C@@H](Cc1ccccc1)[C@H](O)CNC[C@@H](O)[C@H](Cc1ccccc1)NC(=O)OC(C)(C)C)c1cccnc1 (stereo partly drawn) [Compound 258, [R-(R*,S*)]-[Iminobis[2-hydroxy-1-(phenylmethyl)-3,1-propanediyl)]biscarbamic acid. 1,1-dimethylethyl-1-(3-pyridinyl)ethyl ester]	1500
99			CC(C)[C@H](NC(=O)C(N)Cc1ccccc1O)C(=O)N[C@@H](Cc1ccccc1)[C@H](O)CNC[C@@H](O)[C@H](Cc1ccccc1)NC(=O)OC(C)(C)C (relative stereo) [Compound 211, [1R*,2S*(2S*,3R*)]-N-[3-[[3-[[(1,1-Dimethylethoxy)carbonyl]amino]-2-hydroxy-4-phenylbutyl]amino]-2-hydroxy-1-(phenylmethyl)propyl]-N^2-(2-hydroxyoxyphenylalanyl)-L-valinamide, fumarate (2:3) salt]	900
98			CC(C)(C)OC(=O)N[C@@H](Cc1ccccc1)[C@H](O)CNC[C@@H](O)[C@H](Cc1ccc(OCC(=O)O)cc1)NC(=O)OC(C)(C)C [Compound 346, [1S-[1R*,2S*(2S*,3R*)]-[4-[4-(Carboxymethoxy)phenyl)-3-[[3-[[1,1-dimethylethoxy)carbonyl]amino]-2-hydroxy-1-(phenylmeyhyl)propyl)carbamic acid, 1, 1dimethylethyl ester]	> 50000
77			CC(C)[C@H](NC(=O)OCc1ccccc1)C(=O)N[C@@H](Cc1ccccc1)[C@H](O)CNC[C@@H](O)[C@H](Cc1ccccc1)N(C)C(=O)OC(C)(C)C [Compound 141, [S-[1R*,2S*(2S*,3R*)]-N-[3-[[3-[[(1,1-Dimethylethoxy)carbonyl]methylamino]-2-hydroxy-4-phenylbutyl]amino]-2-hydroxy-1-(phenylmethyl)propyl]-N^2-[(phenylmethoxy)-carbonyl]-L-valinamide]]	> 2300
	98		CC(C)(C)OC(=O)N[C@@H](CCc1ccccc1)[C@H](O)CNC[C@@H](O)[C@H](Cc1ccccc1)NC(=O)OC(C)(C)C [Compound 25, [1S-[1R*,2S*(2S*,3R* )]]-[3-[[3-[[(1,1-Dimethylethoxy)carbonyl]amino]-2-hydroxy-4-phenylbutyl]amino]-2-hydroxy-1-(2-phenylethyl))propyl]carbarmic acid, 1,1-dimethylethyl ester]	530
73			CC(C)[C@H](NC(=O)OCc1ccccc1)C(=O)N[C@@H](Cc1ccccc1)[C@H](O)CNC[C@@H](O)[C@H](Cc1ccccc1)NC(=O)[C@H](CC(N)=O)NC(=O)OC(C)(C)C [Compound 121, [S-[1R*,2S*(2S*.3R*)]]-N^2-[(1-Dimethylethoxy)carbonyl]-N-[2-hydroxy-3-[[2-hydroxy-4-phenyl-3-[[N-[(phenylmethoxy)carbonyl]-L-valyl]amino]butyl]amino]-1-(phenylmethyl)-propyl]-L-asparaginamide]	> 300

Structure (SMILES)	inhibition at 10 µM (HIV protease; [2]) [%]	inhibition at 10 µM (HIV protease; [3]) [%]	HIV Protease % Inhibition at 10 μM (HIV protease; 10 μM inhibitor, 4% DMSO, 450 μM substrate, pH 5.5, 30 minutes at 37° C., RP-HPLC) [%]	IC50 [1] [nM]
COCCCCOc1ccc(C[C@H](NC(=O)OC(C)(C)C)[C@H](O)CNC[C@@H](O)[C@H](Cc2ccccc2)NC(=O)OC(C)(C)C)cc1 [Compound 300, [1S-[1R*,2S*(2S*,3R*)]]-[3-[[3-[[(1,1-Dimethylethoxy)-carbonyl]amino]-2-hydroxy-4-[4-(4-methoxybutoxy)phenyl]butyl]amino]-2-hydroxy-1-(phenylmethyl)propyl]carbamic acid, 1,1-dimethylethyl ester]	99			30
